Results as given in patent publication US20240199598A1 (MITOIMMUNE THERAPEUTICS INC., priority 2021, published 2024).

Tests used:
[1] = Stability test of Crystalline form III of sulfate (light, dark, 60° C., 40° C./75% RH); type: physicochemical
Procedure: The chemical and physical stability of Crystalline form III were studied under conditions of light, light-shielding, 60° C. and 40° C./75% RH for 1 month. […] In the light stability test, the crystalline form was stored in a light stability test chamber without a lid and thus exposed to a total illuminance of 1.2 million lux-hr, and a sample vial completely covered with an aluminum foil was regarded as a light-shielded control (Dark control). Appearance by visual observation for 2 weeks, 1 month, 2 months and 3 months was recorded, and purity assessment and XPRD data collection for residual solid contents were performed.

[2] = Persistence of Crystalline form VIII under nitrogen and on exposure to air (XRPD); type: physicochemical
Procedure: A novel crystalline form was found by heating Crystalline form IV to remove water and maintaining the same for 10 minutes and named Crystalline form VIII.

[3] = Physicochemical stability test of free form and 5 salts (60° C., 40° C./75% humidity, light); settings: for Final purity: HPLC; for Chemical stability (purity change %/1 w), 40° C./75% RH / Chemical stability (purity change %/1 w), 60° C. / Chemical stability (purity change %/1 w), Light stability: summary Table 9; for Sensitivity to heat, humidity and light conditions (in words): 40° C./75% humidity
Procedure: In the case of a light stability test, the vial was stored in a light stability test chamber while being not closed with a lid, and exposed to a total illuminance of 1.2 million lux-hr. A vial light-shielded with aluminum foil was used as an experimental control (Dark control). For stability assessment, state assessment by visual observation, purity assessment using HPLC, and crystalline form assessment using XRPD were conducted, and results thereof are shown in Table 7. […] In FIGS. 19 to 30, “Light” represents light irradiation condition results.

[4] = Oral administration pharmacokinetic test using mice; settings: mice, oral; for AUClast / Cmax / Tmax / t½: 10 mg/kg; for Pharmacokinetic test, t½: summary Table 9
[5] = Dark control (light-shielded vial)

O=S(=O)(O)O.O=S1(=O)CCN(Cc2cc(NC3CCOCC3)c3[nH]c(-c4ccccc4)cc3c2)CC1
Area (%), impurity peak 3 (RRT 0.67) ([1]; 1.2 million lux-hr): 0.226% | Area (%), impurity peak 10 (RRT 1.24) ([1]; 1.2 million lux-hr): 0.221% | Area (%), impurity peak 12 (RRT 1.42) ([1]; 1.2 million lux-hr): 0.073% | Area of Sulfate (%), peak 7 (RRT 1.00, main peak) ([1]; 1.2 million lux-hr): 99.382% | Area (%), impurity peak 2 (RRT 0.63) ([1]; 40° C./75% RH, 1 M): 0.183% | Area (%), impurity peak 4 (RRT 0.68) ([1]; 40° C./75% RH, 1 M): 0.061% | Area (%), impurity peak 6 (RRT 0.91) ([1]; 40° C./75% RH, 1 M): 0.102% | Area (%), impurity peak 9 (RRT 1.12) ([1]; 40° C./75% RH, 1 M): 0.518% | Area (%), impurity peak 11 (RRT 1.32) ([1]; 40° C./75% RH, 1 M): 0.149% | Area of Sulfate (%), peak 7 (RRT 1.00, main peak) ([1]; 40° C./75% RH, 1 M): 98.711% | Area (%), impurity peak 1 (RRT 0.50) ([1]; 40° C./75% RH, 2 W): 0.069% | Area (%), impurity peak 3 (RRT 0.67) ([1]; 40° C./75% RH, 2 W): 0.226% | Area (%), impurity peak 10 (RRT 1.24) ([1]; 40° C./75% RH, 2 W): 0.321% | Area (%), impurity peak 12 (RRT 1.42) ([1]; 40° C./75% RH, 2 W): 0.084% | Area of Sulfate (%), peak 7 (RRT 1.00, main peak) ([1]; 40° C./75% RH, 2 W): 98.769% | Area (%), impurity peak 2 (RRT 0.63) ([1]; 60° C., 1 M): 0.168% | Area (%), impurity peak 4 (RRT 0.68) ([1]; 60° C., 1 M): 0.056% | Area (%), impurity peak 9 (RRT 1.12) ([1]; 60° C., 1 M): 0.325% | Area (%), impurity peak 11 (RRT 1.32) ([1]; 60° C., 1 M): 0.088% | Area of Sulfate (%), peak 7 (RRT 1.00, main peak) ([1]; 60° C., 1 M): 99.247% | Area (%), impurity peak 3 (RRT 0.67) ([1]; 60° C., 2 W): 0.231% | Area (%), impurity peak 5 (RRT 0.82) ([1]; 60° C., 2 W): 0.052% | Area (%), impurity peak 8 (RRT 1.11) ([1]; 60° C., 2 W): 0.114% | Area (%), impurity peak 10 (RRT 1.24) ([1]; 60° C., 2 W): 0.211% | Area (%), impurity peak 12 (RRT 1.42) ([1]; 60° C., 2 W): 0.054% | Area of Sulfate (%), peak 7 (RRT 1.00, main peak) ([1]; 60° C., 2 W): 99.237% | Area (%), impurity peak 3 (RRT 0.67) ([1]; Dark control): 0.209% | Area (%), impurity peak 8 (RRT 1.11) ([1]; Dark control): 0.069% | Area (%), impurity peak 12 (RRT 1.42) ([1]; Dark control): 0.078% | Area of Sulfate (%), peak 7 (RRT 1.00, main peak) ([1]; Dark control): 99.326% | Area (%), impurity peak 3 (RRT 0.67) ([1]; Initial): 0.204% | Area (%), impurity peak 8 (RRT 1.11) ([1]; Initial): 0.069% | Area (%), impurity peak 10 (RRT 1.24) ([1]; Initial): 0.215% | Area (%), impurity peak 12 (RRT 1.42) ([1]; Initial): 0.08% | Area of Sulfate (%), peak 7 (RRT 1.00, main peak) ([1]; Initial): 99.319%

O=S1(=O)CCN(Cc2cc(NC3CCOCC3)c3[nH]c(-c4ccccc4)cc3c2)CC1 [Crystalline form VIII]
Time until the crystalline form disappeared ([2]; exposed to air, changes to Crystalline form IV): ≤ 1 h | Persistence of the crystalline form (in words) ([2]; nitrogen filling protection after cooling to 25° C.): maintained upon nitrogen filling protection after cooling to 25 °C

Cl.O=S1(=O)CCN(Cc2cc(NC3CCOCC3)c3[nH]c(-c4ccccc4)cc3c2)CC1 [Hydrochloride]
Assay ([3]; 1.2 million lux-hr): 108.65% | Purity change ([3]; 1.2 million lux-hr): 0% | XRPD patterns ([3]; 1.2 million lux-hr): Pattern 1-I | Final purity ([3]; 1.2 million lux-hr): 99.95% | Appearance ([3]; 40° C./75% RH, 1 w): White powder | Assay ([3]; 40° C./75% RH, 1 w): 109.18% | Purity change ([3]; 40° C./75% RH, 1 w): −0.55% | XRPD patterns ([3]; 40° C./75% RH, 1 w): Pattern 1-I | Final purity ([3]; 40° C./75% RH, 1 w): 99.40% | Chemical stability (purity change %/1 w), 40° C./75% RH ([3]; 40° C./75% RH, 1 w): −0.05% | Appearance ([3]; 60° C., 1 w): White powder | Assay ([3]; 60° C., 1 w): 110.29% | Purity change ([3]; 60° C., 1 w): +0.05% | XRPD patterns ([3]; 60° C., 1 w): Pattern 1-I | Final purity ([3]; 60° C., 1 w): 100.0% | Chemical stability (purity change %/1 w), 60° C. ([3]; 60° C., 1 w): 0.18% | Sensitivity to heat, humidity and light conditions (in words) ([3]; 60° C., 1.2 million lux-hr): sensitive under a humidity condition | Assay ([3]; Dark control): 108.99% | Purity change ([3]; Dark control): +0.05% | XRPD patterns ([3]; Dark control): Pattern 1-I | Appearance [3, 5]: White powder | Final purity ([3]; Dark control): 100.0% | Chemical stability (purity change %/1 w), Light stability [3]: 0% | AUClast [4]: 12261.43 ng·h/mL | Cmax [4]: 2381.1 ng/mL | Tmax [4]: 120 min | t½ [4]: 3.0 h | Pharmacokinetic test, t½ [4]: 3 h

O=C(O)/C=C\C(=O)O.O=S1(=O)CCN(Cc2cc(NC3CCOCC3)c3[nH]c(-c4ccccc4)cc3c2)CC1 [Maleate]
Assay ([3]; 1.2 million lux-hr): 109.56% | Purity change ([3]; 1.2 million lux-hr): −0.17% | XRPD patterns ([3]; 1.2 million lux-hr): Pattern 7-I | Final purity ([3]; 1.2 million lux-hr): 96.86% | Appearance ([3]; 40° C./75% RH, 1 w): Yellow powder | Assay ([3]; 40° C./75% RH, 1 w): 108.85% | Purity change ([3]; 40° C./75% RH, 1 w): −0.77% | XRPD patterns ([3]; 40° C./75% RH, 1 w): Pattern 7-I | Final purity ([3]; 40° C./75% RH, 1 w): 96.26% | Chemical stability (purity change %/1 w), 40° C./75% RH ([3]; 40° C./75% RH, 1 w): −0.77% | Appearance ([3]; 60° C., 1 w): Yellow powder | Assay ([3]; 60° C., 1 w): 110.00% | Purity change ([3]; 60° C., 1 w): −0.44% | XRPD patterns ([3]; 60° C., 1 w): Pattern 7-I | Final purity ([3]; 60° C., 1 w): 96.59% | Chemical stability (purity change %/1 w), 60° C. ([3]; 60° C., 1 w): −0.44% | Sensitivity to heat, humidity and light conditions (in words) ([3]; 60° C., 1.2 million lux-hr): sensitive under all conditions including heat, humidity and light irradiation conditions | Assay ([3]; Dark control): 109.66% | Purity change ([3]; Dark control): +0.01% | XRPD patterns ([3]; Dark control): Pattern 7-I | Appearance [3, 5]: Yellow powder | Final purity ([3]; Dark control): 97.04% | Chemical stability (purity change %/1 w), Light stability [3]: −0.17% | AUClast [4]: 15780.45 ng·h/mL | Cmax [4]: 3115.9 ng/mL | Tmax [4]: 30 min | t½ [4]: 2.8 h | Pharmacokinetic test, t½ [4]: 3 h

CS(=O)(=O)O.O=S1(=O)CCN(Cc2cc(NC3CCOCC3)c3[nH]c(-c4ccccc4)cc3c2)CC1 [Mesylate]
Assay ([3]; 1.2 million lux-hr): 102.69% | Purity change ([3]; 1.2 million lux-hr): −0.82% | XRPD patterns ([3]; 1.2 million lux-hr): Pattern 4-I | Final purity ([3]; 1.2 million lux-hr): 99.18% | Purity decrease ([3]; 40° C. RH for 1 week): ≥ 3% | Appearance ([3]; 40° C./75% RH, 1 w): White powder | Assay ([3]; 40° C./75% RH, 1 w): 101.35% | Purity change ([3]; 40° C./75% RH, 1 w): −3.29% | XRPD patterns ([3]; 40° C./75% RH, 1 w): Pattern 4-I | Final purity ([3]; 40° C./75% RH, 1 w): 96.71% | Chemical stability (purity change %/1 w), 40° C./75% RH ([3]; 40° C./75% RH, 1 w): −3.29% | Appearance ([3]; 60° C., 1 w): White powder | Assay ([3]; 60° C., 1 w): 107.36% | Purity change ([3]; 60° C., 1 w): 0% | XRPD patterns ([3]; 60° C., 1 w): Pattern 4-I | Final purity ([3]; 60° C., 1 w): 100.0% | Chemical stability (purity change %/1 w), 60° C. ([3]; 60° C., 1 w): 0% | Sensitivity to heat, humidity and light conditions (in words) ([3]; 60° C., 1.2 million lux-hr): sensitive under humidity and light conditions | Assay ([3]; Dark control): 103.03% | Purity change ([3]; Dark control): 0% | XRPD patterns ([3]; Dark control): Pattern 4-I | Appearance [3, 5]: White powder | Final purity ([3]; Dark control): 100.0% | Chemical stability (purity change %/1 w), Light stability [3]: −0.82% | AUClast [4]: 10119.7 ng·h/mL | Cmax [4]: 2595.2 ng/mL | Tmax [4]: 30 min | t½ [4]: 2.3 h | Pharmacokinetic test, t½ [4]: 2 h

Cc1ccc(S(=O)(=O)O)cc1.O=S1(=O)CCN(Cc2cc(NC3CCOCC3)c3[nH]c(-c4ccccc4)cc3c2)CC1 [Tosylate]
Assay ([3]; 1.2 million lux-hr): 105.78% | Purity change ([3]; 1.2 million lux-hr): −0.24% | XRPD patterns ([3]; 1.2 million lux-hr): Pattern 6-I | Final purity ([3]; 1.2 million lux-hr): 98.77% | Appearance ([3]; 40° C./75% RH, 1 w): White powder | Assay ([3]; 40° C./75% RH, 1 w): 107.73% | Purity change ([3]; 40° C./75% RH, 1 w): −0.01% | XRPD patterns ([3]; 40° C./75% RH, 1 w): Pattern 6-I | Final purity ([3]; 40° C./75% RH, 1 w): 99.00% | Chemical stability (purity change %/1 w), 40° C./75% RH ([3]; 40° C./75% RH, 1 w): −0.01% | Appearance ([3]; 60° C., 1 w): White powder | Assay ([3]; 60° C., 1 w): 108.33% | Purity change ([3]; 60° C., 1 w): −0.05% | XRPD patterns ([3]; 60° C., 1 w): Pattern 6-I | Final purity ([3]; 60° C., 1 w): 98.96% | Chemical stability (purity change %/1 w), 60° C. ([3]; 60° C., 1 w): −0.05% | Sensitivity to heat, humidity and light conditions (in words) ([3]; 60° C., 1.2 million lux-hr): sensitive to light | Assay ([3]; Dark control): 108.98% | Purity change ([3]; Dark control): −0.03% | XRPD patterns ([3]; Dark control): Pattern 6-I | Appearance [3, 5]: White powder | Final purity ([3]; Dark control): 98.98% | Chemical stability (purity change %/1 w), Light stability [3]: −0.24% | AUClast [4]: 18850.98 ng·h/mL | Cmax [4]: 3151.3 ng/mL | Tmax [4]: 30 min | t½ [4]: 2.8 h | Pharmacokinetic test, t½ [4]: 3 h
